These results are taken from patent US20180057888A1, “KUB5/HERA AS A DETERMINANT OF SENSITIVITY TO DNA DAMAGE” (priority 2015, published 2018).

One series has as its system 231 cells. The series can be described thus: Western blot analysis of pS1497-BRCA1 and CDK1 in 231 cells. In kind it is cell-based. Conditions: 24 hr; for CDK1 protein level: Rucaparib 5 μM and/or RO3066 0.5 and 1 μM. Here is the method:
FIGS. 9A-H. Loss of K-H compromises CDK1 expression/activity and reduces HR-mediated DSB repair. (FIG. 9[…]1 cells transiently transfected with indicated concentrations of siK-H for 48 hr. Total cellular proteins from each treatments were subjected to Western blot analysis using indicated antibodies. (FIG. 9B) Western blot analysis of CDK1 protein levels in 231 […] treated with siK-H (15 nM) and harvested at various times (24, 48, 72 hr). (FIG. 9C) Western blot analysis of CDK1 protein levels in 231 cells treated with siRNA to nonspecific gene control (siSCR) or specific genes as indicated (15 nM). Specific siRNA oligonucleotide sequences used in this study are listed in Table S3. […] (FIG. 9E) 231 cells treated with ionizing radiation (IR, 2 Gy) and harvested after 1 hr. […] Bottom, Endogenous phospho-[…] BRCA1 is higher in shSCR compared to shK-H. After IR treatment, […] BRCA1 phosphorylation is impaired in 231 shK-H but not in shSCR. (FIG. 9F) 231 cells treated with PARP1i Rucaparib (5 μM, 24 hr), CDK1 inhibitor RO3066 (0.5 and 1 μM, 24 hr) or combination [Rucaparib+RO3066]. Cells were harvested after 24 hr treatment. […] BRCA1 was activated ([…]-BRCA1) after Rucaparib treatment alone (lane 2) but not in combination with CDK1 inhibitor, RO3066 (lanes 5 and 6). […] (FIG. 90) Comparison of 231 […]) treated with Rucaparib (5 μM, 24 hr), CDK1 inhibitor RO3066 (1 μM, 24 hr) or combination [Rucaparib+RO3066]. Cells were harvested after 24 hr treatment. […] Endogenous […]-BRCA1 was higher in vehicle-treated shSCR (lane 1) compared to shK-H (lane 6). […] (FIG. 9H) Homologous recombination assay in MCF-7 cells using DR-GFP reporter system. Columns represent mean percentage of GFP-positive cells normalized to control (siSCR); error bars represent ±s.e.m. from duplicate experiments, *p<0.05, **p<0.01. See Table S3 for siRNA sequences. siK-H used was to 3'-UTR. Western Blot Analysis. Whole-cell lysates and nuclear extracts were prepared as previously described (Morales et al., 2014). See Supplementary Table S2 for a list of specific antibodies and dilutions used. Protein concentrations were determined by BCA Assay following manufacturer's instructions (Thermo Scientific). Normalized protein samples were separated on denaturing gradient gels (4-20% from BioRad) and were transferred to PVDF membranes for immunoblotting. After transfer, the membranes were first blocked with 1× Sigma Blocking Buffer for an hour at room temperature. The membranes were then incubated with the indicated primary antibodies diluted in 1× Sigma Blocking Buffer at 4° C. overnight. After this step, the membranes were washed with PBST (3×, 10 minutes each). HRP-conjugated secondary antibodies were diluted in 1× Sigma Blocking Buffer and incubated with the membranes at room temperature for 1 hr. […]

The next series relates to MDA-MB-231 shK-H cells. The series can be described thus: Colony formation assay (clonogenic survival), MDA-MB-231 shK-H. Conditions: for sensitivity of shK-H cells in colony forming assays: shK-H cells compared to parental or shSCR 231 cells, 24 hr treatment; for CC50: Homo sapiens. The format is cell-based. As for the experimental part: (§1) Colony Formation Assay (CFA).
(§2) Cells were seeded out in appropriate dilutions and treated with the vehicle (0.01% DMSO) or PARP inhibitors at various concentrations for 24 hr. After treatment, cells were then cultured in drug-free medium for several days (at least six rounds of replication), depending on the proliferation rate of each cell line. Colonies were fixed with formaldehyde (4%) and stained with crystal violet. Colonies containing more than 50 normal-appearing cells were counted using a microscope. Each drug concentration was assessed in triplicate, and the experiments were repeated three times.

For series [1], the system named is MDA-MB-231 breast cancer cell line. The series can be described thus: Colony formation assay (clonogenic survival), parental MDA-MB-231. In kind it is cell-based. Here is the method:
as §1, §2

The subject of the next series is MDA-MB-231 shSCR cells. The series can be described thus: Colony formation assay (clonogenic survival), MDA-MB-231 shSCR. The format is cell-based. As for the experimental part:
as §1, §2

The next series relates to MDA-MB-231 shPARP1 cells. The series can be described thus: Colony formation assay (clonogenic survival), MDA-MB-231 shPARP1. The format is cell-based. As for the experimental part: as §1, §2
Series [2] concerns HCC1569 breast cancer cell line. The series can be described thus: cells. Conditions: Homo sapiens, HCC1569, read-out: AG014699 Mean LC50 (SEM). The format is cell-based. Here is the method: as §1, §2
In series [3] the test system is HCC202 breast cancer cell line. The series can be described thus: cells. In kind it is cell-based. Conditions: HCC202, read-out: AG014699 Mean LC50 (SEM). Here is the method: as §1, §2
The subject of series [4] is HTB122 breast cancer cell line. The series can be described thus: cells. In kind it is cell-based. The following applies: read-out: AG014699 Mean LC50 (SEM). As for the experimental part:
as §1, §2

For series [5], the system named is HTB24 breast cancer cell line. The series can be described thus: cells. The format is cell-based. The following applies: read-out: AG014699 Mean LC50 (SEM). As for the experimental part: as §1, §2
For series [6], the system named is MCF-7 breast cancer cell line. The series can be described thus: cells. Conditions: Homo sapiens, MCF7, read-out: AG014699 Mean LC50 (SEM). In kind it is cell-based. Here is the method: as §1, §2
The next series has as its target PARP1 (Homo sapiens, UniProt P09874). The series can be described thus: PARP activity assay (PAR formation, immunoblot of total protein lysates). The format is biochemical. The following applies: lysates of parental, shK-H, shPARP1, shSCR 231 cells.
Series [7] has as its system shK-H 231 cells. The series can be described thus: TUNEL assay of apoptotic cell death. The format is cell-based. Conditions: Rucaparib 5 and 10 μM, 24 hr. As for the experimental part:
TUNEL Assay. To measure apoptotic cell death, log phase 231 shSCR or shK-H cells were treated with the vehicle (0.01% DMSO) or Rucaparib (5 and 10 μM) for 24 hr, and incubated in drug-free media for additional 72 hr in the cell incubator. The cells were then harvested and fixed in 70% ethanol overnight at −20° C. Equal amount of cells from each treatment were then subjected to terminal deoxynucleotidyltransferase dUTP nick end labeling (TUNEL) following the standard protocols from APO-Direct TUNEL Assay kit (BD Biosciences), which include positive and negative controls. Flow cytometry experiments were immediately performed using the BD LSRFortessa II cell analyzer, and data were analyzed using the BD FACSDiva software (www.bdbiosciences.com). All experiments were performed in triplicate.

The test system of series [8] is shK-H 231 cells. The series can be described thus: Immunofluorescence of γ-H2AX and 53BP1 foci (DSB markers), shK-H cells. The format is cell-based. The following applies: shK-H-depleted 231 cells, Rucaparib 5 μM, 24 hr. As for the experimental part:
(§3) MDA-MB-231 shSCR or shK-H cells were plated in a six-well plate (˜200,000 each well containing a glass slide) overnight. The next day, cells were treated with DMSO (0.01%) or Rucaparib/AG014699 (5 μM) for 24 hr. After treatment, the media was gently replaced with drug-free media and harvested at various times (0, 1, 6, 24 hr). The slides were gently washed with phosphate-buffered solution (pH=7.4), and fixed with ice cold methanol:acetone solution (3:1) for 10 min at −20° C. The cells were then washed and rehydrated with PBS at room temperature (3×, 5 min intervals). Next, the cells were incubated in blocking solution (5% normal goat serum in PBS) for 60 min at RT. After blocking, the cells were then incubated in primary antibody (diluted in 5% normal goat serum in PBS) overnight at 4° C. The next day, the cells were washed three times with wash buffer (1% BSA in PBS; 5 min. interval between washes). […]
(§4) To elucidate the mechanism by which K-H depletion sensitizes cells to PARP inhibition, the inventors treated shSCR vs shK-H 231 cells with vehicle (0.01% DMSO) or Rucaparib (5 μM) for 24 hr and quantified DSB formation at various times post-treatment using γ-H2AX and/or 53BP1 as surrogate DSB markers (Lobrich et al., 2010; Anderson et al., 2001 and Bekker-Jensen et al., 2005) (representative images, FIG. 2A).

The next series concerns shSCR 231 cells. The series can be described thus: Immunofluorescence of γ-H2AX and 53BP1 foci (DSB markers), shSCR cells. The format is cell-based. Conditions: shSCR 231 cells with wild-type K-H; Rucaparib 5 μM, 24 hr. Here is the method: as §3, §4
Another series relates to HCC1937 cells. The series can be described thus: Sulforhodamine B viability assay in HCC1937 cells. The format is cell-based. Conditions: Rucaparib 30 μM, 24 hr. The text has this:
FIGS. 8A-H. Pharmacological and genetic ablation of PARP1 activity is synthetic lethal with aberrant K-H reduction in BRCA-proficient breast cancers. (FIG. 8A) Western blot analysis of the parental BRCA-proficient 231 TNBC compared with 231 cells engineered to generate stable short hairpin RNA targeting non-specific gene control (shSCR), Kub5-Hera (shK-H) or PARP1 (shPARP1). (FIG. 8B) Chemical structures of PARP inhibitors used in this study. Left, AG014361; Right, AG014699 or Rucaparib. (C) Colony formation of specified cell lines treated with varying concentrations (0, 1, 2.5, 5, 10, 25 μM) of PARP inhibitor, AG014361, for 24 hr. Survival is expressed as mean percentage of colonies formed relative to vehicle-treated (0.01% DMSO) cells; error bars represent ±s.e.m. from three replicates. (FIG. 8D) Total cellular proteins from indicated 231 cells treated with vehicle (0.01% DMSO), AG014699/Rucaparib (5 μM), or staurosporine (STS, 2 μM) were subjected to Western blot analysis with indicated antibodies. (FIG. 8E) Western blot analysis of HCC1937 cell lines stably transfected with empty vector (lane 1), BRCA1 cDNA (lane 2), BRCA1 cDNA+ transient siSCR (lane 3), or BRCA1 cDNA+ transient siK-H (lane 4). […] Colorimetric intensity values were obtained using a plate reader, and normalized to control (0.01% DMSO). […]

Where [9] appears, read: Homo sapiens, MDA-MB-231, read-out: AG014699 Mean LC50 (SEM).
Where [10] appears, read: Homo sapiens, MDA-MB-231, read-out: LC50 values.

Where two headings read alike, the source gives them in different places.

Sequence of PARP1 (P09874 whole entry): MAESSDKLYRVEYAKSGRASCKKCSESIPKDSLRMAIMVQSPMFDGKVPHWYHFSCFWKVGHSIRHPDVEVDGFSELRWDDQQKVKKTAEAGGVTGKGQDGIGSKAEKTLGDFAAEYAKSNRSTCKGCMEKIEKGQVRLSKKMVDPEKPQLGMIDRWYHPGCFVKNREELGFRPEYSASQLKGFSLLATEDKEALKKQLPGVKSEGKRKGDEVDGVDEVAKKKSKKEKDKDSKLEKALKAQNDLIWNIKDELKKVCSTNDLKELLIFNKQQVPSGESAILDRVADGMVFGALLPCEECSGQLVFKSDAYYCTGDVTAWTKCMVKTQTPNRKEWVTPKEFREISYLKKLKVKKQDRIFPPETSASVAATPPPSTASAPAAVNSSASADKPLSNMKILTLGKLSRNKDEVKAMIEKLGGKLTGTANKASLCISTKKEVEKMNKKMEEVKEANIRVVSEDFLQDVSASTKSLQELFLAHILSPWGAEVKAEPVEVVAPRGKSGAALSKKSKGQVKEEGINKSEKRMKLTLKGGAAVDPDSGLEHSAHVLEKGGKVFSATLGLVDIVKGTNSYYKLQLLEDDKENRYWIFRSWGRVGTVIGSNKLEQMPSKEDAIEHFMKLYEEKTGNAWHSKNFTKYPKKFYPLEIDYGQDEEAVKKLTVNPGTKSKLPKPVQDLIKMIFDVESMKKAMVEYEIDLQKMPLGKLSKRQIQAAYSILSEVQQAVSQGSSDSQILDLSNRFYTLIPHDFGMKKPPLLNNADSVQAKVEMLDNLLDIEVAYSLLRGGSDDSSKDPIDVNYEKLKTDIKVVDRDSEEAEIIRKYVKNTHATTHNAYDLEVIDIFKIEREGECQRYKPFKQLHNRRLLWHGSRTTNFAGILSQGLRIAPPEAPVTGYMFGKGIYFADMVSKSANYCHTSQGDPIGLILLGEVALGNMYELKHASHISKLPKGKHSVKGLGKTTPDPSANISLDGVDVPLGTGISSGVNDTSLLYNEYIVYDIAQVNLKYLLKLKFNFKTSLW

Regarding `O=C1NC(=NCc2cccs2)S/C1=C\c1ccc2ncccc2c1` [RO3066], in the series on 231 cells (231 cells), the CDK1 protein level entry is “no further reduction of CDK1”. Moreover, the “pS1497-BRCA1 activation in combination with Rucaparib” value in the series with 231 cells (231 shSCR cells, Rucaparib 5 μM + RO3066 1 μM) was “inhibited”.
As to `Cn1ncnc1[C@H]1c2n[nH]c(=O)c3cc(F)cc(c23)N[C@@H]1c1ccc(F)cc1` [Talazoparib], the “sensitivity of shK-H cells in colony forming assays” value in the series on MDA-MB-231 shK-H cells is “more sensitive”.
With `CN(C)Cc1ccc(-c2nc3cccc4c3n2CCNC4=O)cc1` [AG014361], the CC50 in [1] (parental 231 cells, similar treatment conditions, read-out: LC50 values) was roughly 20 µM; with MDA-MB-231 shSCR cells (shSCR 231 cells, similar treatment conditions, read-out: LC50 values), roughly 20 µM; in the series on MDA-MB-231 shPARP1 cells (shPARP1 231 cells, similar treatment conditions, read-out: LC50 values), roughly 20 µM. The “additional lethality in PARP1-deficient cells” value in the series on MDA-MB-231 shPARP1 cells (shPARP1 231 cells, dose-response curve coinciding with parental or shSCR cells) is on record as “did not induce additional lethality”. Also, the “sensitivity of shK-H cells in colony forming assays” value in the series with MDA-MB-231 shK-H cells is listed as “more sensitive”.
On to `CNCc1ccc(-c2[nH]c3cc(F)cc4c3c2CCNC4=O)cc1` [AG014699, Rucaparib], for which the CC50 in series [1] (setting [9]) was 20 µM; in [1] (setting [10]), roughly 20 µM; in series [2] it was 18 µM; in series [3] it was 6.7 µM; in series [4], 3.9 µM; in series [5], 1.5 µM. Besides, the CC50 in series [6] is 11 µM; in the series with MDA-MB-231 shSCR cells (setting [9]) it was 18 µM; in the series on MDA-MB-231 shSCR cells (setting [10]), roughly 20 µM; with MDA-MB-231 shPARP1 cells (setting [9]), 17 µM; in the series with MDA-MB-231 shPARP1 cells (setting [10]), roughly 20 µM; in the series on MDA-MB-231 shK-H cells (MDA-MB-231, read-out: AG014699 Mean LC50 (SEM)), 0.7 µM. The CC50 in the series on MDA-MB-231 shK-H cells (MDA-MB-231, read-out: lethality (LC50) in shK-H 231 cells) is 0.66 µM. The “fold greater lethality than similar AG014361 exposures” value with MDA-MB-231 shK-H cells (shK-H 231 cells, Rucaparib vs AG014361) is given as roughly 6 fold. Moreover, the “Relative PARP enzymatic activity [PAR formation/Time (sec)]” value on PARP1 was “inhibited”. The “apoptosis (% TUNEL+)” value in the series with shK-H 231 cells [7] is given as “dose-dependent increase in apoptosis”. For the same compound, in the series with shK-H 231 cells [8], the “levels of co-localized γ-H2AX and 53BP1 foci (persistent DSBs)” value is listed as “dramatically increased”. Moreover, the “DSB levels (53BP1 foci formation)” value in the series with shK-H 231 cells [8] (over time post-treatment) is listed as “Dramatic increase in DSB levels”. The “levels of DSBs after exposure” value in the series with shSCR 231 cells is “significantly lower levels of DSBs”. For the same compound, in the series with HCC1937 cells (BRCA1-corrected HCC1937 + siK-H), the “lethality after siK-H depletion of BRCA1-corrected cells” value is on record as “induced lethality”. In the series on HCC1937 cells (BRCA-deficient HCC1937 + BRCA1 cDNA), the “lethality after reconstitution with BRCA1 cDNA” value is listed as “abolished”. In the series on 231 cells (231 cells), the CDK1 protein level result is “no further reduction of CDK1”. In addition, the “BRCA1 activation (pS1497-BRCA1)” value in the series with 231 cells (231 cells, Rucaparib alone 5 μM) was “activated”.
